Like-named read-outs stand apart in the source and are kept apart here.
Target: CFTR (Homo sapiens, UniProt P13569)
Assay: Membrane Potential Dye, Enteroid Assay A
Assay type: cell-based
Settings: for EC50: read-out: Ent. A EC50
In short: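 Signal is reported as % Activity relative to a triple CFTR modulator control (3 μM + 3 μM + 300 nM acute). Read-out: membrane potential fluorescence (20 μM methyl oxonol) monitored for 15 min after chloride-free stimulation. Dye loading took 25 min at room temperature in Bath 1 buffer containing CaCC blockers.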

Chain of CFTR (P13569 with tags, fused parts or gaps DEL508-508): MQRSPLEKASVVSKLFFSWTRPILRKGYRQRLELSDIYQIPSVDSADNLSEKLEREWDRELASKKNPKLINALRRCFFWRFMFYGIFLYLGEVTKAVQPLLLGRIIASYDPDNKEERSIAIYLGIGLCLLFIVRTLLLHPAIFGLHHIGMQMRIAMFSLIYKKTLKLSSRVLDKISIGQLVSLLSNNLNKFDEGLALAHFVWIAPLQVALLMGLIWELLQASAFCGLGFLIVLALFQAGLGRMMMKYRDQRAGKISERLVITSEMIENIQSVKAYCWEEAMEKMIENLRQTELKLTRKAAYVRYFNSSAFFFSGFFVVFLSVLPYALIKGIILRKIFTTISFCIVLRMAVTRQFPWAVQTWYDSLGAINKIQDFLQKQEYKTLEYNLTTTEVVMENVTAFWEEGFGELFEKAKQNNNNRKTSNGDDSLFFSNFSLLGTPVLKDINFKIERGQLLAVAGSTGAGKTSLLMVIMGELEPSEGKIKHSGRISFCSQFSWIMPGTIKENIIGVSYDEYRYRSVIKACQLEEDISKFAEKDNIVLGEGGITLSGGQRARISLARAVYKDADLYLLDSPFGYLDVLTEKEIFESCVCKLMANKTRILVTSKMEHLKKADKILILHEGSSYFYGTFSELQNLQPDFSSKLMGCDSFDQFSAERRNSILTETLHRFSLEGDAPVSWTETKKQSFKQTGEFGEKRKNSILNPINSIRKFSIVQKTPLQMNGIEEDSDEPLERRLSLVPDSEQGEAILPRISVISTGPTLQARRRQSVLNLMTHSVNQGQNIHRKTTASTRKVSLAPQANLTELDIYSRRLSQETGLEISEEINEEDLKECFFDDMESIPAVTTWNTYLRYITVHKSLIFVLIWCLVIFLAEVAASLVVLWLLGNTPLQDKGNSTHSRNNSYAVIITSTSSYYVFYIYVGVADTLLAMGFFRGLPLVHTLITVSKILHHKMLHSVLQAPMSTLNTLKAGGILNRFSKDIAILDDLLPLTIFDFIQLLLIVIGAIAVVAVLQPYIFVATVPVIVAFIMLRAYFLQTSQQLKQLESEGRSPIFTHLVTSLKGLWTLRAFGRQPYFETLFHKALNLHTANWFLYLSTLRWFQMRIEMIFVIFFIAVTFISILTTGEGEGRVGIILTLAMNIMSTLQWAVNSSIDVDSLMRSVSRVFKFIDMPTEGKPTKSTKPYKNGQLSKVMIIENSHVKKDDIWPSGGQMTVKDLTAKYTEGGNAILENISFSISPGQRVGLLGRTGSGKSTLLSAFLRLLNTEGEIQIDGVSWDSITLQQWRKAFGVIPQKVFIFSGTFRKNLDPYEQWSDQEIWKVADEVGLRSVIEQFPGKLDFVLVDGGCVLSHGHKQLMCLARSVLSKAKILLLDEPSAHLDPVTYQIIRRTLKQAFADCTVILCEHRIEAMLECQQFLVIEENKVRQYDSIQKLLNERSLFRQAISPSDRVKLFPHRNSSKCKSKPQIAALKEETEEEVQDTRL

Structure (SMILES): COc1ccccc1-c1cc2nc(n1)NS(=O)(=O)c1cccc(c1)C(=O)N[C@H](CC(C)C)CO2 [Compound 330]
- Ent. A Max Activity (Enteroid Assay A): ++ (++ is 30-60%)

Structure (SMILES): Cc1cccc(C)c1-c1cc2nc(n1)NS(=O)(=O)c1cccc(c1)C(=O)NCC1(CCN(C(=O)C(CC(C)C)NC(=O)OC(C)(C)C)CC1)CO2 (stereo not drawn) [Compound 450]
- Ent. A Max Activity (Enteroid Assay A): ++ (++ is 30-60%)
- EC50 (Enteroid Assay A): 3 to 30 µM

Structure (SMILES): COc1ccc2c(c1)c(C(=O)N1CCC3(CC1)CNC(=O)c1cccc(c1)S(=O)(=O)Nc1nc(cc(-c4c(C)cccc4C)n1)OC3)c(C)n2C1CC1 [Compound 451]
- Ent. A Max Activity (Enteroid Assay A): ++ (++ is 30-60%)
- EC50 (Enteroid Assay A): 3 to 30 µM

Structure (SMILES): Cc1cccc(C)c1-c1cc2nc(n1)NS(=O)(=O)c1cccc(c1)C(=O)N[C@H]1CCCC[C@H]1O2 [Compound 364]
- Ent. A Max Activity (Enteroid Assay A): ++ (++ is 30-60%)
- EC50 (Enteroid Assay A): 3 to 30 µM

Structure (SMILES): CC(C)C[C@@H]1COc2cc(-c3ccnn3CC(C)C)nc(n2)NS(=O)(=O)c2cccc(c2)C(=O)N1 [Compound 102, (11R)-11-(2-Methylpropyl)-6-[1-(2-methylpropyl)-1H-pyrazol-5-yl]-9-oxa-2λ^6-thia-3,5,12,19-tetraazatricyclo[12.3.1.14,8]nonadeca-1(17),4(19),5,7,14(18),15-hexaene-2,2,13-trione]
- Ent. A Max Activity (Enteroid Assay A): ++ (++ is 30-60%)
- EC50 (Enteroid Assay A): 3 to 30 µM

Structure (SMILES): Cc1cccc(C)c1-c1cc2nc(n1)NS(=O)(=O)c1cccc(c1)C(=O)N[C@H](CC1CCC(F)(F)CC1)CO2 [Compound 187]
- Ent. A Max Activity (Table 8): +++ (+++ is >60%)
- EC50 (Table 8): < 1 µM

Structure (SMILES): Cc1cccc(C)c1-c1cc2nc(n1)NS(=O)(=O)c1cccc(c1)C(=O)N[C@@H]1CCN(Cc3ccc(C(C)(C)C)cc3)C[C@@H]1O2 (single isomer, unassigned) [Compound 91, 5-[(4-tert-butylphenyl)methyl]-20-(2,6-dimethylphenyl)-2-oxa-16λ^6-thia-5,9,17,19,22-pentaazatetracyclo[16.3.1.111,15.03,8]tricosa-1(21),11(23),12,14,18(22),19-hexaene-10,16,16-trione]
- Ent. A Max Activity (Table 9): +++ (+++ is >60%)
- EC50 (Table 9): < 1 µM

Structure (SMILES): Cc1cccc(C)c1-c1cc2nc(n1)NS(=O)(=O)c1cccc(c1)C(=O)NC[C@@H](c1ccc(C(C)(F)F)cc1)O2 (stereo in doubt) [Compound 399]
- Ent. A Max Activity (Table 8): +++ (+++ is >60%)
- EC50 (Table 8): < 1 µM

Structure (SMILES): Cc1cccc(C)c1-c1cc2nc(n1)NS(=O)(=O)c1cccc(c1)C(=O)NCC(C13CC4CC(CC(C4)C1)C3)O2 (stereo not drawn) [Compound 244]
- EC50 (Table 8): < 1 µM

Structure (SMILES): CC(C)C[C@@H]1COc2cc(C3=CCCC3)nc(n2)NS(=O)(=O)c2cccc(c2)C(=O)N1 [Compound 321]
- EC50 (Enteroid Assay A): 3 to 30 µM

Structure (SMILES): Cc1cccc(C)c1-c1cc2nc(n1)NS(=O)(=O)c1cccc(c1)C(=O)N[C@@H](C)[C@H](c1ccc(C(C)(C)C)cc1)O2 [Compound 228]
- Ent. A Max Activity (Table 9): + (+ is <30%)
- EC50 (Table 9): < 1 µM

Structure (SMILES): Cc1cccc(C)c1-c1cc2nc(n1)NS(=O)(=O)c1cccc(c1)C(=O)NC1(CCN(CCC(C)(C)C)CC1)CO2 [Compound 86, 1′-(3,3-Dimethylbutyl)-6-(2,6-dimethylphenyl)-2,2-dioxo-spiro[9-oxa-2λ^6-thia-3,5,12,19-tetrazatricyclo[12.3.1.14,8]nonadeca-1(18),4(19),5,7,14,16-hexaene-11,4′-piperidine]-13-one]
- Ent. A Max Activity (Table 9): +++ (+++ is >60%)
- EC50 (Table 9): 1 to 3 µM

Structure (SMILES): Cc1cccc(C)c1-c1cc2nc(n1)NS(=O)(=O)c1cc(n(C)n1)C(=O)N[C@@H](CC1CCCCC1)CO2 [Compound 359]
- Ent. A Max Activity (Table 8): + (+ is <30%)

Structure (SMILES): Cc1cccc(C)c1-c1cc2nc(n1)NS(=O)(=O)c1cccc(c1)C(=O)N[C@H](CC(C)C)[C@H](C)O2 [Compound 235]
- Ent. A Max Activity (Table 8): +++ (+++ is >60%)
- EC50 (Table 8): < 1 µM

Structure (SMILES): COc1cccc(C)c1-c1cc2nc(n1)NS(=O)(=O)c1cccc(c1)C(=O)N[C@H](CC1CCCCC1)CO2 [Compound 303]
- Ent. A Max Activity (Table 8): + (+ is <30%)
- EC50 (Table 8): < 1 µM

Structure (SMILES): CC[C@@H]1COc2cc(-c3c(C)cccc3C)nc(n2)NS(=O)(=O)c2cccc(c2)C(=O)N1 [Compound 353]
- Ent. A Max Activity (Enteroid Assay A): ++ (++ is 30-60%)
- EC50 (Enteroid Assay A): 3 to 30 µM

Structure (SMILES): Cc1cccc(C)c1-c1cc2nc(n1)NS(=O)(=O)c1cccc(c1)C(=O)NCC1(CCN(C(=O)c3cc4c(cc3O)CCCC4)CC1)CO2 [Compound 462]
- Ent. A Max Activity (Enteroid Assay A): ++ (++ is 30-60%)

Structure (SMILES): Cc1cccc(C)c1-c1cc2nc(n1)NS(=O)(=O)c1cccc(c1)C(=O)NCC(c1ccc(/C=C/C(C)(C)C)cc1)O2 (stereo not drawn) [Compound 23, 10-[4-[(E)-3,3-Dimethylbut-1-enyl]phenyl]-6-(2,6-dimethylphenyl)-2,2-dioxo-9-oxa-2λ^6-thia-3,5,12,19-tetrazatricyclo[12.3.1.14,8]nonadeca-1(18),4(19),5,7,14,16-hexaen-13-one]
- Ent. A Max Activity (Table 9): +++ (+++ is >60%)
- EC50 (Table 9): < 1 µM

Structure (SMILES): Cc1ccc(C2CNC(=O)c3cccc(c3)S(=O)(=O)Nc3nc(cc(-c4c(C)cccc4C)n3)O2)cc1 (stereo not drawn) [Compound 407]
- Ent. A Max Activity (Table 8): +++ (+++ is >60%)
- EC50 (Table 8): < 1 µM

Structure (SMILES): Cc1cccc(C)c1-c1cc2nc(n1)NS(=O)(=O)c1cccc(c1)C(=O)NCC1(CCN(C(=O)C3CC[C@@H](NC(=O)OC(C)(C)C)C3)CC1)CO2 (stereo partly drawn) [Compound 470]
- Ent. A Max Activity (Enteroid Assay A): ++ (++ is 30-60%)

Structure (SMILES): Cc1cccc(C)c1-c1cc2nc(n1)NS(=O)(=O)[C@H]1CC[C@H]1C(=O)N[C@H](CC(C)C)CO2 (single isomer, unassigned) [Compound 72]
- Ent. A Max Activity (Table 9): + (+ is <30%)

Structure (SMILES): Cc1cccc(C)c1-c1cc2nc(n1)NS(=O)(=O)c1cccc(c1)C(=O)N[C@@H](CCC(C)(C)C)CO2 (single isomer, unassigned) [Compound 48]
- Ent. A Max Activity (Table 8): + (+ is <30%)
- EC50 (Table 8): < 1 µM

Structure (SMILES): Cc1cccc(C)c1-c1cc2nc(n1)NS(=O)(=O)c1cccc(c1)C(=O)NC(C(=O)NC(C)(C)C)CO2 (stereo not drawn) [Compound 66, N-tert-butyl-6-(2,6-dimethylphenyl)-2,2,13-trioxo-9-oxa-2λ^6-thia-3,5,12,19-tetrazatricyclo[12.3.1.14,8]nonadeca-1(18),4(19),5,7,14,16-hexaene-11-carboxamide]
- Ent. A Max Activity (Table 8): + (+ is <30%)

Structure (SMILES): Cc1cccc(C)c1-c1cc2nc(n1)NS(=O)(=O)c1cccc(c1)C(=O)N[C@@H]1CCN(Cc3ccccc3)C[C@H]1O2 (stereo in doubt) [Compound 382]
- Ent. A Max Activity (Table 9): +++ (+++ is >60%)
- EC50 (Table 9): < 1 µM

Structure (SMILES): Cc1cccc(C)c1-c1cc2nc(n1)NS(=O)(=O)c1cc(ccn1)C(=O)N[C@H](CC1CCCCC1)CO2 [Compound 69, (11R)-11-(Cyclohexylmethyl)-6-(2,6-dimethylphenyl)-2,2-dioxo-9-oxa-2λ^6-thia-3,5,12,17,19-pentazatricyclo[12.3.1.14,8]nonadeca-1(17),4(19),5,7,14(18),15-hexaen-13-one]
- Ent. A Max Activity (Table 8): +++ (+++ is >60%)
- EC50 (Table 8): < 1 µM

Structure (SMILES): CCC(C)(C)c1ccc(C2CNC(=O)c3cccc(c3)S(=O)(=O)Nc3nc(cc(-c4c(C)cccc4C)n3)O2)cc1 (stereo not drawn) [Compound 153]
- Ent. A Max Activity (Table 8): + (+ is <30%)
- EC50 (Table 8): 3 to 30 µM

Structure (SMILES): Cc1cccc(C)c1-c1cc2nc(n1)NS(=O)(=O)c1cccc(c1)C(=O)N[C@H](CCC(F)(F)F)CO2 (stereo in doubt) [Compound 190]
- Ent. A Max Activity (Table 8): +++ (+++ is >60%)
- EC50 (Table 8): < 1 µM

Structure (SMILES): Cc1cccc(C)c1-c1cc2nc(n1)NS(=O)(=O)c1cccc(c1)C(=O)NCC1(CCN(C(=O)[C@]3(C)CCCN3C(=O)OC(C)(C)C)CC1)CO2 [Compound 472]
- Ent. A Max Activity (Enteroid Assay A): ++ (++ is 30-60%)
- EC50 (Enteroid Assay A): 3 to 30 µM

Structure (SMILES): Cc1cccc(C)c1-c1cc2nc(n1)NS(=O)(=O)c1cccc(c1)C(=O)NCC(CC(C)C)O2 (stereo not drawn) [Compound 255]
- EC50 (Table 8): 1 to 3 µM

Structure (SMILES): Cc1nc(C(F)(F)F)c(C(=O)N2CCC3(CC2)CNC(=O)c2cccc(c2)S(=O)(=O)Nc2nc(cc(-c4c(C)cccc4C)n2)OC3)s1 [Compound 460]
- Ent. A Max Activity (Enteroid Assay A): ++ (++ is 30-60%)

Structure (SMILES): Cc1cccc(C)c1-c1cc2nc(n1)NS(=O)(=O)c1cccc(c1)C(=O)NCC1(CCN(C(=O)CC(C)(C)C)CC1)CO2 [Compound 481]
- Ent. A Max Activity (Enteroid Assay A): ++ (++ is 30-60%)

Structure (SMILES): Cc1cccc(C)c1-c1cc2nc(n1)NS(=O)(=O)c1cccc(c1)CN[C@H](CC1CCCCC1)CO2 [Compound 286]
- Ent. A Max Activity (Table 8): + (+ is <30%)
- EC50 (Table 8): 3 to 30 µM

Structure (SMILES): Cc1cccc(C)c1-c1cc2nc(n1)NS(=O)(=O)c1cccc(c1)C(=O)N[C@H](CC(C)C)C(C1CC1)O2 (stereo partly drawn) [Compound 238]
- Ent. A Max Activity (Table 8): +++ (+++ is >60%)
- EC50 (Table 8): 1 to 3 µM

Structure (SMILES): Cc1cccc(C)c1-c1cc2nc(n1)NS(=O)(=O)c1cccc(c1)C(=O)N[C@H]1CCN(CCC(C)(C)C)C[C@H]1O2 (single isomer, unassigned) [Compound 90, 5-(3,3-dimethylbutyl)-20-(2,6-dimethylphenyl)-2-oxa-16λ^6-thia-5,9,17,19,22-pentaazatetracyclo[16.3.1.111,15.03,8]tricosa-1(21),11(23),12,14,18(22),19-hexaene-10,16,16-trione]
- Ent. A Max Activity (Table 9): +++ (+++ is >60%)
- EC50 (Table 9): 1 to 3 µM

Structure (SMILES): Cc1ccccc1[C@H]1CNC(=O)c2cccc(c2)S(=O)(=O)Nc2nc(cc(-c3c(C)cccc3C)n2)O1 (stereo in doubt) [Compound 277]
- Ent. A Max Activity (Table 8): + (+ is <30%)

Structure (SMILES): Cc1cccc(C)c1-c1cc2nc(n1)NS(=O)(=O)c1cccc(c1)C(=O)NCC1(CCN(C(=O)CO[C@@H]3C[C@H](C)CC[C@H]3C(C)C)CC1)CO2 [Compound 468]
- Ent. A Max Activity (Enteroid Assay A): ++ (++ is 30-60%)
- EC50 (Enteroid Assay A): 1 to 3 µM

Structure (SMILES): Cc1cccc(C)c1-c1cc2nc(n1)NS(=O)(=O)c1cccc(c1)C(=O)N[C@@H](CC1CCC1)[C@@H](c1ccc(C(C)(C)C)cc1)O2 (stereo in doubt) [Compound 229]
- Ent. A Max Activity (Table 8): +++ (+++ is >60%)
- EC50 (Table 8): < 1 µM

Structure (SMILES): CCC(CC)(CC)c1ccc([C@@H]2CNC(=O)c3cccc(c3)S(=O)(=O)Nc3nc(cc(-c4c(C)cccc4C)n3)O2)cc1 [Compound 259]
- Ent. A Max Activity (Table 9): + (+ is <30%)
- EC50 (Table 9): < 1 µM

Structure (SMILES): CCOc1ccccc1-c1cc2nc(n1)NS(=O)(=O)c1cccc(c1)C(=O)N[C@H](CC(C)C)CO2 [Compound 328]
- Ent. A Max Activity (Enteroid Assay A): ++ (++ is 30-60%)
- EC50 (Enteroid Assay A): 1 to 3 µM

Source: US20230382924A1, “MODULATORS OF CYSTIC FIBROSIS TRANSMEMBRANE CONDUCTANCE REGULATOR” (VERTEX PHARMACEUTICALS INCORPORATED, priority 2020, published 2023)
